Source: patent US7812036B2, “Androgens” (N.V. Organon, priority 2004, dated 2010)

Target: T1, human androgen receptor (Homo sapiens, UniProt P10275)
T1 construct: expressed in transfected cells; host or cells: Chinese hamster ovary (CHO) cells, line CHO-AR-pMMTV-LUC 1G12-A5-CA
T1 sequence (P10275 1-920): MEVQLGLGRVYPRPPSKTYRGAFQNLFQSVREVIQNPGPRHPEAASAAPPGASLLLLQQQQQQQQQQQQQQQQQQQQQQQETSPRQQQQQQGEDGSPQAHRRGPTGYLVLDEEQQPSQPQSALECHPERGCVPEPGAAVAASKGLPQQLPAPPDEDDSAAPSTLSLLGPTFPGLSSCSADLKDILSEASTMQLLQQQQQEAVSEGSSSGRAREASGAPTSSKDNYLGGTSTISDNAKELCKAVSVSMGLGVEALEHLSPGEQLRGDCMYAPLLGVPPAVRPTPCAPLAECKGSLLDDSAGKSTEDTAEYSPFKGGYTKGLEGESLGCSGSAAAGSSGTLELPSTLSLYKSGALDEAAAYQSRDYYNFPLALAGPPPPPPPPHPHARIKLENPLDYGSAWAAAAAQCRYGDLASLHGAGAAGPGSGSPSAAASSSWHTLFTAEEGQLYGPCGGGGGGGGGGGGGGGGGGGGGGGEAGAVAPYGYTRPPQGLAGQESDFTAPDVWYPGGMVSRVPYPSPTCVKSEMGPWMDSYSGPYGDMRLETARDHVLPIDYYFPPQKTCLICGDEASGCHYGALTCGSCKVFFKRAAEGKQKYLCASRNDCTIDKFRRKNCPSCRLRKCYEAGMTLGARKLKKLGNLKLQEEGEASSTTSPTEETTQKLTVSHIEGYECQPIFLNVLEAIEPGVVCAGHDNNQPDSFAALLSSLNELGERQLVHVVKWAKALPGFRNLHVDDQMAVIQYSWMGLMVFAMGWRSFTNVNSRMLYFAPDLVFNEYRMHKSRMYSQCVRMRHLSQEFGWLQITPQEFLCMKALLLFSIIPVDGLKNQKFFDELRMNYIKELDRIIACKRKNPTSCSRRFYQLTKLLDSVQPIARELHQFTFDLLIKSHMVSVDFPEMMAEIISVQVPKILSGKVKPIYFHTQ
Test: Androgenic activity (potency) in vitro bioassay, CHO-AR-pMMTV-LUC 1G12-A5-CA cells, luciferase reporter
Type: cell-based
Conditions: CHO cells stably transfected with human androgen receptor and MMTV-luciferase reporter; in the presence of 0.1 μmol/l onapristone; potencies expressed as percentage of DHT activity (maximal efficacy with 100 nmol/l DHT set as 100%)
Procedure: The androgenic activity (potency) of the compounds of the invention was determined in an in vitro bioassay of Chinese hamster ovary (CHO) cells stably transfected with the human androgen receptor expression plasmid and a reporter plasmid in which the MMTV promoter is linked to the luciferase reporter gene. The cell line CHO-AR-pMMTV-LUC 1G12-A5-CA is described in Schoonen et al. (J. Steroid Biochem. Molec. Biol. 2002; 74: 213-222). The androgen receptor activity of compounds was determined in the presence of 0.1 μmol/l onapristone. The maximal efficacy in the presence of 100 nmol/1 DHT was set as 100%. The potencies are expressed as percentage of DHT activity.

Row | Compound | Potency (%)
1 | CNc1ccc2c(Sc3ccccc3[N+](=O)[O-])cn(Cc3cc(F)cc(F)c3)c2c1 [Example 1] | 15.0
2 | CNc1ccc2c(Sc3ccccc3[N+](=O)[O-])cn(Cc3ccccn3)c2c1 [Example 2, Methyl-[3-(2-nitro-phenylsulfanyl)-1-pyridin-2-ylmethyl-1H-indol-6-yl]-amine] | 9.9
3 | CNc1ccc2c(Sc3ccccc3[N+](=O)[O-])cn(Cc3cccnc3)c2c1 [Example 3, Methyl-[3-(2-nitro-phenylsulfanyl)-1-pyridine-3-ylmethyl-1H-indol-6-yl]-amine] | 13.4
4 | CNc1ccc2c(Sc3ccccc3[N+](=O)[O-])cn(Cc3ccccc3)c2c1 [Example 5a, [1-Benzyl-3-(2-nitro-phenylsulfanyl)-1H-indol-6-yl]-methyl-amine] | 9.2
5 | CNc1ccc2c(Sc3ccccc3[N+](=O)[O-])cn(Cc3ccccc3F)c2c1 [Example 5b] | 0.4
6 | CNc1ccc2c(Sc3ccccc3[N+](=O)[O-])cn(Cc3cccc(F)c3)c2c1 [Example 5c, [1-(3-Fluoro-benzyl)-3-(2-nitro-phenylsulfanyl)-1H-indol-6-yl]-methyl-amine] | 13.3
7 | CNc1ccc2c([S+]([O-])c3ccccc3[N+](=O)[O-])cn(Cc3ccc(F)cc3)c2c1 (stereo not shown) [Example 5d] | 4.3
8 | CNc1ccc2c(Sc3ccccc3[N+](=O)[O-])cn(Cc3ccncc3)c2c1 [Example 5e, Methyl-[3-(2-nitro-phenylsulfanyl)-1-pyridin-4-ylmethyl-1H-indol-6-yl]-amine] | 35.1
9 | CNc1ccc2c(Sc3ccccc3[N+](=O)[O-])cn(Cc3ncccn3)c2c1 [Example 5f, Methyl-[3-(2-nitro-phenylsulfanyl)-1-pyrimidin-2-ylmethyl-1H-indol-6-yl]-amine] | 1.8
10 | CNc1ccc2c(Sc3ccccc3[N+](=O)[O-])cn(Cc3cncnc3)c2c1 [Example 5g, Methyl-[3-(2-nitro-phenylsulfanyl)-1-pyrimidin-5-ylmethyl-1H-indol-6-yl]-amine] | 21.6
11 | CNc1ccc2c(Sc3ccccc3[N+](=O)[O-])cn(Cc3ccco3)c2c1 [Example 5h, [1-Furan-2-ylmethyl-3-(2-nitro-phenylsulfanyl)-1H-indol-6-yl]-methyl-amine] | 16.5
12 | CNc1ccc2c(Sc3ccccc3[N+](=O)[O-])cn(Cc3ccoc3)c2c1 [Example 5i, [1-Furan-3-ylmethyl-3-(2-nitro-phenylsulfanyl)-1H-indol-6-yl]-methyl-amine] | 17.9
13 | CNc1ccc2c(Sc3ccccc3[N+](=O)[O-])cn(Cc3cocn3)c2c1 [Example 5j, Methyl-[3-(2-nitro-phenylsulfanyl)-1-oxazol-4-ylmethyl-1H-indol-6-yl]-amine] | 14.8
14 | CNc1ccc2c(Sc3ccccc3[N+](=O)[O-])cn(Cc3ccon3)c2c1 [Example 5k, [1-Isoxazol-3-ylmethyl-3-(2-nitro-phenylsulfanyl)-1H-indol-6-yl]-methyl-amine] | 11.9
15 | CNc1ccc2c(Sc3ccccc3[N+](=O)[O-])cn(Cc3cscn3)c2c1 [Example 5l, Methyl-[3-(2-nitro-phenylsulfanyl)-1-thiazol-4-ylmethyl-1H-indol-6-yl]-amine] | 4.8
16 | CNc1ccc2c(Sc3ccccc3[N+](=O)[O-])cn(Cc3ncco3)c2c1 [Example 5m, Methyl-[3-(2-nitro-phenylsulfanyl)-1-oxazol-2-ylmethyl-1H-indol-6-yl]-amine] | 3.2
17 | CNc1ccc2c(Sc3ccccc3[N+](=O)[O-])cn(Cc3ccno3)c2c1 [Example 5n, [1-Isoxazol-5-ylmethyl-3-(2-nitro-phenylsulfanyl)-1H-indol-6-yl]-methyl-amine] | 19.4
18 | CNc1ccc2c(Sc3ccccc3[N+](=O)[O-])cn(Cc3cccc(Cl)c3)c2c1 [Example 5p, [1-(3-Chloro-benzyl)-3-(2-nitro-phenylsulfanyl)-1H-indol-6-yl]-methyl-amine] | 1.3
19 | CNc1ccc2c(Sc3ccccc3[N+](=O)[O-])cn(Cc3cccc(C(F)(F)F)c3)c2c1 [Example 5q, Methyl-[3-(2-nitro-phenylsulfanyl)-1-(3-trifluoromethyl-benzyl)-1H-indol-6-yl]-amine] | 1.0

Row | Compound | Potency (%)
20 | CNc1ccc2c(Sc3ccccc3[N+](=O)[O-])cn(Cc3cccc(C#N)c3)c2c1 [Example 5r, 3-[6-Methylamino-3-(2-nitro-phenylsulfanyl)-1-indol-1-ylmethyl]-benzonitrile] | 11.4
21 | CNc1ccc2c(Sc3ccccc3[N+](=O)[O-])cn(Cc3cc(C#N)cc(C#N)c3)c2c1 [Example 5s, 5-[6-Methylamino-3-(2-nitro-phenylsulfanyl)-indol-1-ylmethyl]-isophthalonitrile] | 5.9
22 | CNc1ccc2c(Sc3ccccc3C#N)cn(Cc3cc(F)cc(F)c3)c2c1 [Example 6] | 10.5
23 | CNc1ccc2c(Sc3ccccc3C#N)cn(Cc3ccccn3)c2c1 [Example 7, 2-(6-Methylamino-1-pyridin-2-ylmethyl-1H-indol-3-ylsulfanyl)-benzonitrile] | 1.1
24 | CNc1ccc2c(Sc3ccccc3C(C)=O)cn(Cc3cc(F)cc(F)c3)c2c1 [Example 8, 1-{2-[1-(3,5-Difluoro-benzyl)-6-methylamino-1H-indol-3-ylsulfanyl]-phenyl}-ethanone] | 0.2
25 | CNc1ccc2c(Sc3ccccc3C(=O)OC)cn(Cc3cc(F)cc(F)c3)c2c1 [Example 9] | 0.7
26 | CNc1ccc2c(Sc3ccccc3CO)cn(Cc3cc(F)cc(F)c3)c2c1 [Example 10] | 4.3
27 | CNc1ccc2c(Sc3ccccn3)cn(Cc3cc(F)cc(F)c3)c2c1 [Example 11, [1-(3,5-Difluoro-benzyl)-3-(pyridin-2-ylsulfanyl)-1H-indol-6-yl]-methyl-amine] | 6.6
28 | CNc1ccc2c(Sc3ncccc3[N+](=O)[O-])cn(Cc3cc(F)cc(F)c3)c2c1 [Example 12, [1-(3,5-Difluoro-benzyl)-3-(3-nitro-pyridin-2-ylsulfanyl)-1H-indol-6-yl]-methyl-amine] | 5.7
29 | CNc1ccc2c(S(=O)(=O)c3ccccc3[N+](=O)[O-])cn(Cc3cc(F)cc(F)c3)c2c1 [Example 13, [1-(3,5-Difluoro-benzyl)-3-(2-nitro-benzenesulfonyl)-1H-indol-6-yl]-methyl-amine] | 18.9
30 | CNc1ccc2c(S(=O)(=O)c3ccccc3[N+](=O)[O-])cn(Cc3ccccn3)c2c1 [Example 14, Methyl-[3-(2-nitro-phenylsulfonyl)-1-pyridin-2-ylmethyl-1H-indol-6-yl]-amine] | 1.9
31 | CN(C)c1ccc2c(Sc3ccccc3[N+](=O)[O-])cn(Cc3cc(F)cc(F)c3)c2c1 [Example 18] | 2.7
32 | CCNc1ccc2c(Sc3ccccc3[N+](=O)[O-])cn(Cc3cc(F)cc(F)c3)c2c1 [Example 19a, [1-(3,5-Difluoro-benzyl)-3-(2-nitro-phenylsulfanyl)-1H-indol-6-yl]-ethyl-amine] | 2.7
33 | C=CCNc1ccc2c(Sc3ccccc3[N+](=O)[O-])cn(Cc3cc(F)cc(F)c3)c2c1 [Example 19b] | 2.4
34 | CN(C)c1ccc2c(Sc3ccccc3[N+](=O)[O-])cn(Cc3ccccn3)c2c1 [Example 19c, Dimethyl-[3-(2-nitro-phenylsulfanyl)-1-pyridin-2-ylmethyl-1H-indol-6-yl]-amine] | 1.2
35 | CCNc1ccc2c(Sc3ccccc3[N+](=O)[O-])cn(Cc3ccccn3)c2c1 [Example 19d, Ethyl-[3-(2-nitro-phenylsulfanyl)-1-pyridin-2-ylmethyl-1H-indol-6-yl]-amine] | 6.7
36 | CN(C)c1ccc2c(Sc3ccccc3[N+](=O)[O-])cn(Cc3cccnc3)c2c1 [Example 19e, Dimethyl-[3-(2-nitro-phenylsulfanyl)-1-pyridin-3-ylmethyl-1H-indol-6-yl]-amine] | 2.6
37 | N#CCNc1ccc2c(Sc3ccccc3[N+](=O)[O-])cn(Cc3cc(F)cc(F)c3)c2c1 [Example 20, [1-(3,5-Difluoro-benzyl)-3-(2-nitro-phenylsulfanyl)-1H-indol-6-ylamino]-acetonitrile] | 40.2
